Data as given in the supplement of paper PMC10307832.

Tests used:
Assay in all cases: relative viability (nuclei count vs DMSO), 5 days (fraction); higher = more cells survive
Palbociclib + Olaparib = compound: CC(=O)c1c(C)c2cnc(Nc3ccc(N4CCNCC4)cn3)nc2n(C2CCCC2)c1=O [Palbociclib] + O=C(c1cc(Cc2n[nH]c(=O)c3ccccc23)ccc1F)N1CCN(C(=O)C2CC2)CC1 [Olaparib] (partner 8 µM)
Outline: (§1)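 Five library-drug doses in √10 steps were combined with a fixed anchor-drug dose, or a single drug was given alone, by pin tool to lung cancer cell lines in 1536-well plates the day after seeding. Nuclei were stained and counted after 5 days. Relative viability is the nuclei count in treated wells over that in vehicle wells, taken as the median of duplicate plates.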

Palbociclib + Crizotinib = compound: CC(=O)c1c(C)c2cnc(Nc3ccc(N4CCNCC4)cn3)nc2n(C2CCCC2)c1=O [Palbociclib] + C[C@@H](Oc1cc(-c2cnn(C3CCNCC3)c2)cnc1N)c1c(Cl)ccc(F)c1Cl [Crizotinib] (partner 1 µM)
Outline: as §1

Palbociclib = compound: CC(=O)c1c(C)c2cnc(Nc3ccc(N4CCNCC4)cn3)nc2n(C2CCCC2)c1=O [Palbociclib]
Outline: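 Viability was defined as treated-well nuclei divided by vehicle-well nuclei, with the median taken over replicate plates. Cells from lung cancer lines sat overnight at 37 °C in 1536-well plates, received five √10-spaced library-drug doses by pinning on vehicle-anchored plates, and grew 5 days without medium change before one-step fixation, permeabilisation and Hoechst staining, 4× imaging and MetaXpress nuclear counts. Only plates with control CV under 25% and at least one doubling were kept.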

| Cell Line | relative viability (Palbociclib + Olaparib; first compound 0.01 µM) | relative viability (Palbociclib + Olaparib; first compound 0.03162 µM) | relative viability (Palbociclib + Olaparib; first compound 0.1 µM) | relative viability (Palbociclib + Olaparib; first compound 0.3162 µM) | relative viability (Palbociclib + Olaparib; first compound 1 µM) | relative viability (Palbociclib + Crizotinib; first compound 0.01 µM) | relative viability (Palbociclib + Crizotinib; first compound 0.03162 µM) | relative viability (Palbociclib + Crizotinib; first compound 0.1 µM) | relative viability (Palbociclib + Crizotinib; first compound 0.3162 µM) | relative viability (Palbociclib + Crizotinib; first compound 1 µM) | relative viability (Palbociclib; 0.01 µM) | relative viability (Palbociclib; 0.03162 µM) | relative viability (Palbociclib; 0.1 µM) | relative viability (Palbociclib; 0.3162 µM) | relative viability (Palbociclib; 0.5 µM, anchor plate) | relative viability (Palbociclib; 1 µM) |
| --- | --- | --- | --- | --- | --- | --- | --- | --- | --- | --- | --- | --- | --- | --- | --- | --- |
| NCI-H2009 | 0.691 | 0.617 | 0.545 | 0.54 | 0.366 | 1.02 | 0.913 | 0.838 | 0.695 | 0.331 | 0.991 | 0.905 | 0.781 | 0.693 | 0.237 | 0.35 |
| NCI-H2023 | 0.467 | 0.478 | 0.402 | 0.374 | 0.262 | 0.568 | 0.58 | 0.49 | 0.367 | 0.272 | 0.913 | 0.773 | 0.694 | 0.625 | 0.392 | 0.4 |
| NCI-H2085 | 0.788 | 0.767 | 0.712 | 0.584 | 0.488 | 0.895 | 0.823 | 0.513 | 0.695 | 0.576 | 0.979 | 0.966 | 0.879 | 0.805 | 0.475 | 0.574 |
| NCI-H2087 | 0.721 | 0.517 | 0.403 | 0.437 | 0.248 | 0.802 | 0.901 | 0.618 | 0.643 | 0.375 | 1.08 | 0.546 | 0.815 | 0.586 | 0.242 | 0.364 |
| NCI-H2126 | 0.972 | 0.833 | 0.698 | 0.719 | 0.526 | 1.04 | 1.04 | 0.928 | 0.789 | 0.598 | 0.996 | 0.649 | 0.792 | 0.694 | 0.353 | 0.464 |
| NCI-H2170 | 0.675 | 0.61 | 0.551 | 0.488 | 0.436 | 1.23 | 1.07 | 1.11 | 1.13 | 0.785 | 0.993 | 0.856 | 0.94 | 0.894 | 0.382 | 0.704 |
| NCI-H2228 | 0.724 | 0.624 | 0.55 | 0.64 | 0.465 | 0.447 | 0.45 | 0.406 | 0.31 | 0.369 | 1.01 | 0.844 | 0.937 | 0.899 | 0.85 | 0.795 |
| NCI-H2347 | 0.606 | 0.549 | 0.564 | 0.51 | 0.49 | 0.632 | 0.602 | 0.498 | 0.588 | 0.558 | 1.05 | 0.905 | 0.87 | 0.775 | 0.424 | 0.684 |
| NCI-H2405 | 0.842 | 0.841 | 0.765 | 0.682 | 0.527 | 0.829 | 0.649 | 0.698 | 0.703 | 0.586 | 0.996 | 0.797 | 0.842 | 0.889 | 0.52 | 0.654 |
| NCI-H3122 | 0.596 | 0.576 | 0.635 | 0.584 | 0.528 | 0.246 | 0.244 | 0.252 | 0.188 | 0.175 | 0.977 | 0.944 | 0.866 | 0.797 | 0.192 | 0.456 |
| PC-3 [JPC-3] | 1.16 | 0.903 | 0.816 | 0.872 | 0.526 | 0.988 | 1.04 | 0.86 | 0.797 | 0.653 | 1.08 | 0.895 | 0.855 | 0.761 | 0.536 | 0.59 |
| PC-14 | 0.31 | 0.296 | 0.311 | 0.214 | 0.176 | 1.01 | 0.84 | 0.799 | 0.739 | 0.594 | 1.13 | 0.847 | 0.841 | 0.873 | 0.514 | 0.503 |
| RERF-LC-KJ | 0.896 | 0.83 | 0.919 | 0.942 | 0.821 | 0.909 | 0.82 | 0.82 | 0.88 | 0.87 | 1.02 | 0.871 | 0.968 | 1.02 | 1.09 | 1.02 |
| SK-LU-1 | 0.51 | 0.425 | 0.428 | 0.371 | 0.263 | 0.908 | 0.738 | 0.624 | 0.67 | 0.471 | 1.05 | 0.912 | 0.828 | 0.794 | 0.385 | 0.563 |
| SK-MES-1 | 0.695 | 0.57 | 0.446 | 0.343 | 0.205 | 0.943 | 0.952 | 0.724 | 0.714 | 0.45 | 0.931 | 0.852 | 0.683 | 0.648 | 0.327 | 0.361 |
| SW 1573 | 0.463 | 0.452 | 0.454 | 0.359 | 0.291 | 0.776 | 0.672 | 0.685 | 0.758 | 0.615 | 0.994 | 0.789 | 0.8 | 0.723 | 0.419 | 0.617 |
| UMC-11 | 0.332 | 0.375 | 0.341 | 0.298 | 0.136 | 0.603 | 0.519 | 0.428 | 0.346 | 0.177 | 1 | 0.824 | 0.709 | 0.575 | 0.332 | 0.291 |
